Measured values taken from publication PMC10975611, “Heterocycles 52: The Drug-Likeness Analysis of Anti-Inflammatory Thiazolo[3,2-b][1,2,4]triazole and Imidazo[2,1-b][1,3,4]thiadiazole Derivatives” (Pharmaceuticals, 2024).

Key:
[1] = Lipophilicity by reversed-phase thin-layer chromatography (RP-TLC), isopropanol-water mobile phase; type: physicochemical; conditions: for mRM (arithmetic mean of the experimental retention factors RM): RP-18F254s plates, isopropanol 70–90% in water; for RM0 (relative lipophilicity, RM extrapolated to pure water): Soczewinski Wachtmeister equation, isopropanol 70–90%; for lipophilicity (in words): chromatographic lipophilicity profile / lipophilicity descriptors; for PC1(RM): score of first principal component of RM values at isopropanol 70–90%; for b (slope): slope of RM versus isopropanol concentration; for φ0 (chromatographic hydrophobic index): φ0 = RM0/b
Protocol: Lipophilicity was assessed by RP-TLC, using RP-[…] standard silica gel plates (20 × 10 cm) as the stationary phase. An isopropanol:water binary mixture was used as the mobile phase, with different isopropanol concentrations 70%, 75%, 80%, 85%, 90% for thiazolo[3,2-b][1,2,4]triazole (1a–16a) and imidazo[2,1-b][1,3,4]thiadiazole (1b–16b) compounds.
The standard solutions (1 mg/mL) used to investigate the lipophilicity of the synthesized compounds were prepared in dichloromethane (1a–16a compounds) and dimethylsulfoxide (1b–16b compounds). From the obtained solutions, 2 µL was applied manually on the chromatographic plates, at 15 mm from the baseline and 5 mm from the edges of the plate at a spot distance of 12 mm. This procedure was repeated three times. The chromatographic plate upward elution was performed in a chromatographic chamber previously saturated for 30 min with mobile phase, at normal atmospheric pressure and room temperature. The migration distance of the eluent was 80 mm. The chromatographic plates were visually inspected under UV light at λ = 254 nm to identify the compounds. In order to minimize possible experimental errors, three measurements were performed for each mobile phase. The retention factors (Rf) were calculated as the average of three determinations in each case.
Based on the Rf values, a variety of parameters can be determined to estimate the lipophilicity of the compounds. The isocratic retention factor (RM) was determined using the Bate–Smith and Westall equation [34]:RM = log(1/Rf − 1) where Rf = x/y and x = the migration distance of the compound, and y = the migration distance of the solvent front.
There is usually a linear correlation between the RM values and the concentration of the organic component in the mobile phase. For a better estimation of lipophilicity, RM0 was determined as the extrapolated retention factor, considering pure water as the mobile phase (Soczewinski Wachtmeister equation):RM = RM0 + bC where b is the slope of the curve, which indicates the rate at which the solubility of the compound increases in the mobile phase, C is the concentration of the isopropanol in the mobile phase, and RM0 is the RM of the compound when the concentration of isopropanol is zero (extrapolated value).
To estimate the lipophilicity of the compounds, φ0, representing the chromatographic hydrophobicity index, was also determined. It corresponds to the percentage (by volume) of the organic component in the mobile phase and can be determined according to the following formula:φ0 = RM0/b
In order to assess the lipophilicity of compounds, other more relevant lipophilicity parameters have been used, such as the arithmetic mean of the experimental retention factors (mRM), and the score associated with the first principal component (PC1(RM)) obtained by applying principal component analysis (PCA) to the retention parameters RM [35, 36]. The determination of these parameters eliminates the errors that appear during the extrapolation procedure (when determining RM0) so that the results are more accurate.

[2] = parameters: method as in doi:10.31925/farmacia.2018.5.20, PMID 30248903; conditions: in vivo; cited from earlier work
[3] = parameters: method as in doi:10.31925/farmacia.2018.5.20, PMID 30248903; conditions: acute inflammation, compared to diclofenac; cited from earlier work

mRM (arithmetic mean of the experimental retention factors RM) [1]	RM0 (relative lipophilicity, RM extrapolated to pure water) [1]	lipophilicity (in words) [1]	PC1(RM) [1]	b (slope) [1]	φ0 (chromatographic hydrophobic index) [1]	SMILES	pain threshold [2]	in vivo anti-inflammatory activity [3]
0.071	1.805	low lipophilicity	−0.362	−0.022	83.16	COc1ccc(-c2cn3nc(-c4ccccc4)sc3n2)cc1 [Compound 4b]	increased pain threshold	significantly reduced acute inflammation in vivo
0.144	2.270	–	−0.624	−0.027	85.32	Clc1ccc(-c2nn3cc(-c4ccccc4)nc3s2)cc1 [Compound 5b]	increased pain threshold	significantly reduced acute inflammation in vivo
0.006	1.705	low lipophilicity	−0.127	−0.021	80.40	COc1ccc(-c2nc3scc(-c4ccccc4)n3n2)cc1 [Compound 9a]	increased pain threshold	significantly reduced acute inflammation in vivo
0.138	1.900	low lipophilicity	−0.596	−0.022	85.59	COc1ccc(-c2nn3cc(-c4ccccc4)nc3s2)cc1 [Compound 9b]	increased pain threshold	significantly reduced acute inflammation in vivo
−0.013	1.696	low lipophilicity	−0.058	−0.021	79.62	COc1ccc(-c2nc3scc(-c4ccc(OC)cc4)n3n2)cc1 [Compound 12a]	increased pain threshold	significantly reduced acute inflammation in vivo
0.097	1.460	low lipophilicity	−0.450	−0.017	85.89	COc1ccc(-c2cn3nc(-c4ccc(OC)cc4)sc3n2)cc1 [Compound 12b]	increased pain threshold	significantly reduced acute inflammation in vivo
−0.555	1.472	the least lipophilic compounds	1.875	−0.026	57.72	NS(=O)(=O)c1ccc(-c2nc3scc(-c4ccccc4)n3n2)cc1 [Compound 13a]	increased pain threshold	significantly reduced acute inflammation in vivo
−0.464	0.988	the least lipophilic compounds	1.554	−0.018	53.99	NS(=O)(=O)c1ccc(-c2nn3cc(-c4ccccc4)nc3s2)cc1 [Compound 13b]	increased pain threshold	significantly reduced acute inflammation in vivo
